Source: US8440654B2, “Thieno- and furo-pyrimidine modulators of the histamine H4 receptor” (Janssen Pharmaceutica NV, priority 2007, dated 2013)
Structures can show the parent of a compound that is named as a salt.

Biological target: T1, human histamine H4 receptor (Homo sapiens, UniProt Q9H3N8)
T1 construct: expressed in transfected cells; host or cells: SK-N-MC cells or COS7 cells, transiently transfected with pH4R; membrane preparation
Assay: Binding Assay on Recombinant Human Histamine H4 Receptor
Conditions: competition binding with 3H-histamine, membranes of SK-N-MC or COS7 cells transfected with human H4R; average of results obtained
Experimental: Biological Methods: Binding Assay on Recombinant Human Histamine H4 Receptor.
SK-N-MC cells or COS7 cells were transiently transfected with pH4R and grown in 150 cm^2 tissue culture dishes. Cells were washed with saline solution, scraped with a cell scraper and collected by centrifugation (1000 rpm, 5 min). Cell membranes were prepared by homogenization of the cell pellet in 20 mM Tris-HCl with a polytron tissue homogenizer for 10 sec at high speed. Homogenate was centrifuged at 1000 rpm for 5 min at 4° C. The supernatant was then collected and centrifuged at 20,000×g for 25 min at 4° C. The final pellet was resuspended in 50 mM Tris-HCl. Cell membranes were incubated with ^3H-histamine (5-70 nM) in the presence or absence of excess histamine (10,000 nM). Incubation occurred at room temperature for 45 min. Membranes were harvested by rapid filtration over Whatman GF/C filters and washed 4 times with ice-cold 50 mM Tris HCl. Filters were then dried, mixed with scintillant and counted for radioactivity. SK-N-MC or COS7 cells expressing human histamine H4 receptor were used to measure the affinity of binding of other compounds and their ability to displace ^3H-ligand binding by incubating the above-described reaction in the presence of various concentrations of inhibitor or compound to be tested. For competition binding studies using ^3H-histamine, K values were calculated, based on an experimentally determined KD value of 5 nM and a ligand concentration of 5 nM, according to Y.-C.

T1 sequence (Q9H3N8 whole entry): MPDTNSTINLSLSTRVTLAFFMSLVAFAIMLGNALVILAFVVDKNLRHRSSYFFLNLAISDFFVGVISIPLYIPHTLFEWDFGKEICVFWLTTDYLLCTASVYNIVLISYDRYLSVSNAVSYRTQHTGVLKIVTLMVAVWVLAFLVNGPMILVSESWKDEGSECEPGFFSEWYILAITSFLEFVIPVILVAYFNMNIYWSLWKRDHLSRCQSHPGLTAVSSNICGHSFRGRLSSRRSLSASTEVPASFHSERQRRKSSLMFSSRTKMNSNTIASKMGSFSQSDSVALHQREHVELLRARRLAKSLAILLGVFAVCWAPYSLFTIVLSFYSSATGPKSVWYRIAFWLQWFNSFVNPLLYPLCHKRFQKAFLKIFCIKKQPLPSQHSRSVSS

Compound	Ki [nM]
Nc1nc(N2CCN3CCCCC3C2)c2sc3c(c2n1)CCCC3 (stereo not drawn) [Example 53, 4-(Octahydro-2H-pyrido[1,2-a]pyrazin-2-yl)-6,7,8,9-tetrahydro[1]benzothieno-3,2-d]pyrimidin-2-amine trifluoroacetic acid salt]	387
CN1CCN(c2nc(N)nc3ccsc23)CC1 [Example 1, 4-(4-Methyl-piperazin-1-yl)-thieno[3,2-d]pyrimidin-2-ylamine]	503
4-[(1S,4S)-2,5-Diazabi- cyclo]2.2.1-2-yl]hept-2-yl]- 6,7,8,9-tetrahydro[1]benzo- thieno[3,2-d]pyrimidin-2- amine [Example 35]	417
CC(C)(C)c1cc2nc(N)nc(N3CCNCC3)c2s1 [Example 17, 6-tert-Butyl-4-piperazin-1-ylthieno[3,2-d]pyrimidin-2-amine trifluoroacetic acid salt]	142
CC1(C)CCc2sc3c(N4CC[C@@H](N)C4)nc(N)nc3c2C1 [Example 136, 4-[(3R)-3-Aminopyrrolidin-1-yl]-8,8-dimethyl-6,7,8,9-tetrahydro[1]benzothieno[3,2-d]pyrimidin-2-amine hydrochloride]	7.7
CC(C)(C)c1cc2nc(N)nc(N3CCC(N)C3)c2s1 (stereo in doubt) [Example 18, 4-[(3R)-3-Aminopyrrolidin-1-yl]-6-tert-butylthieno[3,2-d]pyrimidin-2-amine trifluoroacetic acid salt]	221
CN[C@@H]1CCN(c2nc(N)nc3c4c(sc23)CCC(C)(C)C4)C1 [Example 134, 8,8-Dimethyl-4-[(3R)-3-(methylamino)pyrrolidin-1-yl]-6,7,8,9-tetrahydro[1]benzothieno[3,2-d]pyrimidin-2-amine hydrochloride]	7.6
CN[C@@H]1CCN(c2nc(N)nc3c4c(oc23)CCC(F)(F)C4)C1 [Example 116, 8,8-Difluoro-4-[(3R)-3-(methylamino)pyrrolidin-1-yl]-6,7,8,9-tetrahydro[1]benzofuro[3,2-d]pyrimidin-2-amine hydrochloride]	0.48
CN1CCN(c2ncnc3c4c(oc23)CCCC4)CC1 [Example 8, 4-(4-Methyl-piperazin-1-yl)-6,7,8,9-tetrahydro-benzo[4,5]furo[3,2-d]pyrimidine]	53
CN[C@H]1CCN(c2nc(N)nc3c4c(sc23)CCC(C)C4)C1 (stereo partly drawn) [Example 44, 8-Methyl-4-[(3R)-3-(methyl-amino)pyrrolidin-1-yl]-6,7,8,9-tetrahydro[1]benzo-thieno[3,2-d]pyrimidin-2-amine trifluoroacetic acid salt]	11
CN1CCN(c2ncnc3c4c(sc23)CCCC4)CC1 [Example 10, 4-(4-Methyl-piperazin-1-yl)-6,7,8,9-tetrahydro-benzo[4,5]thieno[3,2-d]pyrimidine]	132
Nc1nc(N2CCNCC2)c2oc3c(c2n1)CC(F)(F)CC3 [Example 118, 8,8-Difluoro-4-piperazin-1-yl-6,7,8,9-tetrahydro[1]benzofuro[3,2-d]pyrimidin-2-amine hydrochloride]	29
CCN1CCN(c2nc(N)nc3c4c(sc23)CCCC4)CC1 [Example 51, 4-(4-Ethylpiperazin-1-yl)-6,7,8,9-tetrahydro[1]benzo-thieno[3,2-d]pyrimidin-2-amine trifluoroacetic acid salt]	205
CNC1CCN(c2ncnc3c4c(oc23)CCCC4)C1 (stereo in doubt) [Example 28, (3R)-N-Methyl-1-(6,7,8,9-tetrahydro[1]benzofuro[3,2-d]pyrimidin-4-yl)pyrrolidin-3-amine]	66
Nc1nc(N2CC[C@H](N)C2)c2oc3c(c2n1)CC(F)(F)CC3 [Example 126, 4-[(3S)-3-Aminopyrrolidin-1-yl]-8,8-difluoro-6,7,8,9-tetrahydro[1]benzofuro[3,2-d]pyrimidin-2-amine hydrochloride]	6.1
CN[C@H]1CCN(c2nc(N)nc3c4c(sc23)CCC(F)(F)C4)C1 [Example 112, 8,8-Difluoro-4-[(3S)-3-(methylamino)pyrrolidin-1-yl]-6,7,8,9-tetrahydro[1]benzothieno[3,2-d]pyrimidin-2-amine trifluoroacetate]	6
CN(C)[C@@H]1CCN(c2nc(N)nc3c4c(sc23)CCCC4)C1 [Example 39, 4-[(3R)-3-(Dimethyl-amino)pyrrolidin-1-yl]-6,7,8,9-tetrahydro[1]benzo-thieno[3,2-d]pyrimidin-2-amine trifluoroacetic acid salt]	62

Compound	Ki [nM]
CNC1CCN(c2nc(N)nc3c(C)csc23)C1 (stereo in doubt) [Example 12, 7-Methyl-4-[(3R)-3-(methylamino)pyrrolidin-1-yl]thieno[3,2-d]pyrimidin-2-amine]	182
CN(CCN)c1nc(N)nc2c3c(oc12)CCC(F)(F)C3 [Example 125, N^4-(2-Aminoethyl)-8,8-difluoro-N^4-methyl-6,7,8,9-tetrahydro[1]benzofuro[3,2-d]pyrimidine-2,4-diamine (free amine)]	150
CN[C@H]1CCN(c2nc(N)nc3c4c(oc23)CCC(F)(F)C4)C1 [Example 122, 8,8-Difluoro-4-[(3S)-3-(methylamino)pyrrolidin-1-yl]-6,7,8,9-tetrahydro[1]benzofuro[3,2-d]pyrimidin-2-amine trifluoroacetate]	7
Nc1nc(N2C[C@H]3CCN[C@H]3C2)c2sc3c(c2n1)CCCC3 [Example 4, 4-[(3aR,6aR)-Hexahydropyrrolo[3,4-b]pyrrol-5(1H)-yl]-6,7,8,9-tetrahydro[1]benzothieno[3,2-d]pyrimidin-2-amine]	21
Nc1nc(N2CCCNCC2)c2oc3c(c2n1)CC(F)(F)CC3 [Example 130, 4-(1,4-Diazepan-1-yl)-8,8-difluoro-6,7,8,9-tetrahydro[1]benzofuro[3,2-d]pyrimidin-2-amine (free amine)]	8.2
CN1CCN(c2nc(N)nc3c4c(oc23)CCC(F)(F)C4)CC1 [Example 123, 8,8-Difluoro-4-(4-methylpiperazin-1-yl)-6,7,8,9-tetrahydro[1]benzofuro[3,2-d]pyrimidin-2-amine trifluoroacetate]	15
CN[C@H]1CCN(c2nc(N)nc3c4c(sc23)CCCC4)C1 (single isomer, unassigned) [Example 31]	5
Nc1nc(N2C[C@H]3CNC[C@H]3C2)c2sc3c(c2n1)CC(F)(F)CC3 [Example 129, 8,8-Difluoro-4-[(3aR,6aS)-hexahydropyrrolo[3,4-c]pyrrol-2(1H)-yl]-6,7,8,9-tetrahydro[1]benzothieno[3,2-d]pyrimidin-2-amine (free amine)]	680
Nc1nc(N2C[C@H]3CCCN[C@H]3C2)c2sc3c(c2n1)CCCCC3 [Example 48, 4-[(4aR,7aR)-Octahydro-6H-pyrrolo[3,4-b]pyridin-6-yl]-7,8,9,10-tetrahydro-6H-cyclohepta[4,5-d]pyrimidin-2-amine trifluoroacetic acid salt]	3
Nc1nc(N2C[C@H]3CCCN[C@H]3C2)c2oc3c(c2n1)CC(F)(F)CC3 [Example 124, 4-((R,R)-octahydropyrrolo[3,4-b]pyridin-6-yl)-8,8-difluoro-6,7,8,9-tetrahydro[1]benzofuro[3,2-d]pyrimidin-2-amine trifluoroacetate]	33
Nc1nc(N2CC(N)C2)c2oc3c(c2n1)CCCC3 [Example 23, 4-(3-Aminoazetidin-1-yl)-6,7,8,9-tetrahydro[1]benzo-furo[3,s-d]pyrimidin-2-amine trifluoroacetic acid salt]	83
CN1CCN(c2nc(N)nc3c4c(sc23)CCCCC4)CC1 [Example 46, 4-(4-Methylpiperazin-1-yl)-7,8,9,10-tetrahydro-6H-cyclohepta[4,5]thieno[3,2-d]pyrimidin-2-amine tri-fluoroacetic acid salt]	21
Nc1nc(N2CCC[C@H](N)C2)c2sc3c(c2n1)CCCC3 [Example 34, 4-[(3S)-3-Aminopiperidin-1-yl]-6,7,8,9-tetrahydro[1]ben-zothieno[3,2-d]pyrimidin-2-amine]	123
CCNC1CCN(c2nc(N)nc3c4c(sc23)CCCC4)C1 (stereo in doubt) [Example 40, 4-[(3R)-3-(Ethyl-amino)pyrrolidin-1-yl]-6,7,8,9-tetrahydro[1]benzo-thieno[3,2-d]pyrimidin-2-amine trifluoroacetic acid salt]	503
CNC1CCN(c2nc(N)nc3c4c(sc23)CCCCC4)C1 (stereo in doubt) [Example 47, trifluoroacetic acid salt]	5
NC[C@H]1CCN(c2nc(N)nc3c4c(sc23)CCCC4)C1 [Example 41, 4-[(3R)-3-(Amino-methyl)pyrrolidin-1-yl]-6,7,8,9-tetrahydro[1]benzo-thieno[3,2-d]pyrimidin-2-amine trifluoroacetic acid salt]	1010
